Test results as given in patent US10030016B2 (Sunesis Pharmaceuticals, Inc., priority 2009, dated 2018).
Structures can show the parent of a compound that is named as a salt. Where two headings read alike, the source gives them in different places.

Assays:
PDK1 = PDK1 (Homo sapiens (Human), UniProt O15530); test: PDK1 kinase assay (coupled PDK1/AKT/FAM-crosstide assay, IMAP fluorescence polarization); format: biochemical
Outline: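 Coupled cascade: 0.75 nM PDK1 (51-359) → 10 nM AKT2 (140-467-PIFtide) → 100 nM FAM-crosstide. ATP 40 μM, 25° C, 30 min. IMAP FP (ex 485/em 530), 2 h binding. ΔmP vs conc, 4-param fit.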

[1] = system: phospho-akt (Thr308) in PC-3 cells; test: Inhibition of phospho-akt (Thr308) in PC-3 cells, MSD phospho-akt 308 ELISA kit; format: cell-based; details: Homo sapiens
Outline: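 Phospho-Akt (Thr308) levels were measured by MSD ELISA after PC-3 cells received compound for 2 hours in serum-free medium. Controls: DMSO (high), 5 μM wortmannin (low).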

[2] = inhibition of phospo-PDK1 in vitro
[3] = inhibition of P308 Akt in PC-3 cells, 2 hours, no serum, MSD, read-out: EC50
[4] = inhibition of P308 Akt in PC-3 cells using MSD, 2 hours, no serum, read-out: EC50
[5] = PC-3, 2 h, inhibition of P308 Akt in PC-3 cells, 2 hours, no serum, MSD, read-out: EC50

PDK1, sequence (O15530 51-359): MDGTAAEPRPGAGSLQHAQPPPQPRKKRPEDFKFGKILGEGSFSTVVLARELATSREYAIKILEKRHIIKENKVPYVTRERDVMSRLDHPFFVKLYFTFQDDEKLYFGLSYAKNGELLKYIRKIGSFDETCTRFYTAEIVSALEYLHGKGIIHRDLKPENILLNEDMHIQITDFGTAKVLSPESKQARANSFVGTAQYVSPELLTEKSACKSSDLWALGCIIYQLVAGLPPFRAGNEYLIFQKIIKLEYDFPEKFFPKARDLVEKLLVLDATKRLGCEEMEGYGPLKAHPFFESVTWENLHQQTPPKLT

| IC50 (PDK1; [2]) | IC50 (PDK1; inhibition of PDK1 in vitro) | EC50 [1, 4] | SMILES | other results |
| --- | --- | --- | --- | --- |
| – | < 100 nM | 1 to 10 µM | Nc1ncc(-c2ccc(CNc3ncc(C(F)(F)F)cc3C(=O)Nc3ccc(F)cc3)cc2)nc1-c1cccc(O)c1 [Example 236, 2-{4-[5-Amino-6-(3-hydroxy-phenyl)-pyrazin-2-yl]-benzylamino}-N-(4-fluoro-phenyl)-5-trifluoromethyl-nicotinamide] | – |
| – | 1000 to 5000 nM | 1 to 10 µM | Nc1ccc(-c2ccc(CNc3ncccc3C(=O)Nc3ccc(F)cc3)cc2)cn1 [Example 375, 2-(4-(6-aminopyridin-3-yl)benzylamino)-N-(4-fluorophenyl)nicotinamide] | – |
| – | > 5000 nM | > 10 µM | CNc1ncc(-c2ccc(CNc3ncc(C#N)cc3C(=O)N[C@@H](C)c3ccc(F)cc3)cc2)cc1F [Example 109] | – |
| – | 100 to 1000 nM | 1 to 10 µM | Nc1ncnn2c(-c3ccc(CNc4ncc(C(F)(F)F)cc4C(=O)NCc4ccc(F)c(F)c4)cc3)ccc12 [Example 179, 2-[4-(4-Amino-pyrrolo [2,1-f][1,2,4]triazin-7-yl)-benzylamino]-N-(3,4-difluoro-benzyl)-5-trifluoromethyl-nicotinamide] | – |
| – | > 5000 nM | > 10 µM | C[C@H](NC(=O)c1cc(C#N)cnc1NCc1ccc(-c2cccc3n[nH]c(=O)n23)cc1)c1ccc(F)cc1 [Example 144, (S)-5-cyano-N-(1-(4-fluorophenyl)ethyl)-2-(4-(3-oxo-2,3-dihydro-[1,2,4]triazolo[4,3-a]pyridin-5-yl)benzyl-amino)nicotinamide] | – |
| – | 100 to 1000 nM | 1 to 10 µM | C[C@H](NC(=O)c1cc(C#N)cnc1NCc1ccc(-c2ccc(NCCO)nc2)cc1)c1ccc(F)cc1 [Example 222, 5-Cyano-N-[(S)-1-(4-fluoro-phenyl)-ethyl]-2-{4-[6-(2-hydroxy-ethylamino)-pyridin-3-yl]-benzylamino}-nicotinamide] | – |
| – | < 100 nM | < 1 µM | Nc1ncnc2[nH]cc(-c3ccc(CNc4ncc(C(F)(F)F)cc4C(=O)Nc4ccc(F)cc4)cc3)c12 [Example 321, 2-(4-(4-amino-7H-pyrrolo [2,3-d]pyrimidin-5-yl)benzylamino)-N-(4-fluorophenyl)-5-(trifluoromethyl)nicotinamide] | – |
| – | 100 to 1000 nM | 1 to 10 µM | C[C@H](NC(=O)c1cc(C#N)cnc1NCc1ccc(-c2cnc(N)c(C(=O)N(C)C)c2)cc1)c1ccc(F)cc1 [Example 205, (S)-2-amino-5-(4-((5-cyano-3-(1-(4-fluorophenyl)ethylcarbamoyl)pyridin-2-ylamino)methyl)phenyl)-N,N-dimethylnicotinamide] | – |
| – | < 100 nM | 1 to 10 µM | Nc1ncc(-c2ccc(CNc3ncc(C(F)(F)F)cc3C(=O)Nc3ccc(F)cc3)cc2)nc1N1CCC[C@@H](N)C1 [Example 189, 2-{4-[5-Amino-6-((R)-3-amino-piperidin-1-yl)-pyrazin-2-yl]-benzylamino}-N-(4-fluoro-phenyl)-5-trifluoromethyl-nicotinamide] | – |

Continued, molecule first:

| SMILES | IC50 (PDK1; [2]) | IC50 (PDK1; inhibition of PDK1 in vitro) | EC50 [1, 4] | other results |
| --- | --- | --- | --- | --- |
| CNC(=O)c1ncnc2ccc(-c3ccc(CNc4ncccc4C(=O)N[C@@H](C)c4ccc(F)c(F)c4)s3)cc12 [Example 4.25, (S)-6-(5-((3-(1-(3,4-difluorophenyl)ethyl-carbamoyl)pyridin-2-ylamino)methyl)thiophen-2-yl)-N-methylquinazoline-4-carboxamide] | > 5000 nM | – | – | EC50 [1, 3]: > 10 µM |
| CNC(=O)c1cc(S(=O)(=O)N2CCN(C)CC2)cnc1NCc1ccc(-c2ccc3ncnc(N)c3c2)s1 [Example 8.6.12, 2-(((5-(4-aminoquinazolin-6-yl)thiophen-2-yl)methyl)amino)-N-methyl-5-(4-methylpiperazin-1-ylsulfonyl)nicotinamide] | > 5000 nM | – | – | EC50 [1, 3]: > 10 µM |
| Cc1cc(-c2ccc(CNc3ncc(C(F)(F)F)cc3C(=O)NCc3ccc(F)c(F)c3)cc2)cnc1N [Example 355, 2-(4-(6-amino-5-methylpyridin-3-yl)benzylamino)-N-(3,4-difluorobenzyl)-5-(trifluoromethyl)nicotinamide] | – | < 100 nM | 1 to 10 µM | – |
| Nc1ncnc2ccc(-c3ccc(CNc4ncc(I)cc4C(=O)NCc4ccc(F)c(F)c4)s3)cc12 [Ex. 8.3, 2-{[5-(4-amino-quinazolin-6-yl)-thiophen-2-ylmethyl]-amino}-N-(3,4-difluoro-benzyl)-5-iodo-nicotinamide] | < 100 nM | – | – | EC50 [1, 3]: < 1 µM |
| N#Cc1ccc(NC(=O)c2cccnc2NCc2ccc(-c3ccc4ncnc(N)c4c3)s2)cc1 [Example 3.33, 2-({[5-(4-aminoquinazolin-6-yl)thiophen-2-yl]methyl}amino)-N-(4-cyanophenyl)pyridine-3-carboxamide (TFA salt)] | 100 to 1000 nM | – | – | EC50 [1, 5]: > 10 µM |
| CN1CCN(S(=O)(=O)c2cnc(NCc3ccc(-c4ccc5ncnc(N)c5c4)s3)c(C(=O)NCc3ccc(F)c(F)c3)c2)CC1 [Example 8.6.10, 2-(((5-(4-aminoquinazolin-6-yl)thiophen-2-yl)methyl)amino)-N-(3,4-difluorobenzyl)-5-(4-methylpiperazin-1-ylsulfonyl)nicotinamide] | 100 to 1000 nM | – | – | EC50 [1, 5]: 1 to 10 µM |
| Nc1ncnc2c1c(-c1ccc(CNc3ncc(C(F)(F)F)cc3C(=O)NCc3ccc(F)c(F)c3)cc1)cn2CCO [Example 333, 2-(4-(4-amino-7-(2-hydroxyethyl)-7H-pyrrolo[2,3-d]pyrimidin-5-yl)-benzylamino)-N-(3,4-difluorobenzyl)-5-(trifluoromethyl)nicotinamide] | – | < 100 nM | < 1 µM | – |
| CN(C)CCCNS(=O)(=O)c1cnc(NCc2ccc(-c3ccc4ncnc(N)c4c3)s2)c(C(=O)NCc2ccc(F)c(F)c2)c1 [Example 8.6.14, 2-(((5-(4-aminoquinazolin-6-yl)thiophen-2-yl)methyl)amino)-N-(3,4-difluorobenzyl)-5-(N-(3-(dimethylamino)propyl)sulfamoyl) nicotinamide] | < 100 nM | – | – | EC50 [1, 3]: > 10 µM |
| Nc1n[nH]c2ncc(-c3ccc(CNc4ncc(C(F)(F)F)cc4C(=O)NC[C@@H]4CCCO4)cc3)cc12 [Example 309, (S)-2-(4-(3-amino-1H-pyrazolo [3,4-b]pyridin-5-yl)benzylamino)-N-((tetrahydrofuran-2-yl)methyl)-5-(trifluoromethyl) nicotinamide] | – | 100 to 1000 nM | – | EC50 ([1]; PC-3, 2 h, inhibition of P308 Akt in PC-3 cells using MSD, 2 hours, no serum, read-out: EC50): 1 to 10 µM |
| CC(C)Oc1cc(CNc2ncccc2C(=O)Nc2ccc(F)c(F)c2)cc(-c2c[nH]c3ncc(C(=O)NC4CC4)cc23)c1 [Example 4.1.1, N-cyclopropyl-3-(3-((3-(3,4-difluorophenylcarbamoyl)pyridin-2-ylamino)methyl)-5-isopropoxyphenyl)-1H-pyrrolo[2,3-b]pyridine-5-carboxamide] | 100 to 1000 nM | – | – | EC50 [1, 3]: > 10 µM |
| COC(=O)C[C@@H](Nc1ncc(C#N)cc1C(=O)N[C@@H](C)c1ccc(F)cc1)c1ccc(-c2c[nH]c3ncnc(N)c23)cc1 [Example 44, (R)-methyl 3-(4-(4-amino-7H-pyrrolo[2,3-d]pyrimidin-5-yl)phenyl)-3-(5-cyano-3-((S)-1-(4-fluorophenyl)ethylcarbamoyl)pyridin-2-ylamino)propanoate] | – | – | – | IC50 (PDK1): < 100 nM; EC50 ([1]; PC-3, 2 h): 1 to 10 µM |
| CNS(=O)(=O)c1cnc(NCc2ccc(-c3ccc4ncnc(N)c4c3)s2)c(C(=O)N[C@@H](C)c2ccc(F)c(F)c2)c1 [Example 8.7.4, 2-({[5-(4-aminoquinazolin-6-yl)thiophen-2-yl]methyl}amino)-N-[(1S)-1-(3,4-difluorophenyl)ethyl]-5-(methylsulfamoyl) pyridine-3-carboxamide] | < 100 nM | – | – | EC50 [1, 3]: < 1 µM |
